Data on one substance can be found in patent US20180194805A1, “USE OF PENTAPEPTIDE-3 KTTKS OR HEXAPEPTIDE-3 KTTKSF FOR TREATING DEGENERATIVE JOINT DISEASE” (Advanced Healthtech Biopeptide Laboratories Co., LTD., priority 2017, published 2018).

Test [1] relates to arthrodial cartilage of the knee joint. The test is described as follows: Rabbit knee cartilage injury model: observation by bare eyes and histomorphometry. In kind it is in vivo, New Zealand white rabbits. The conditions noted are these: intra-articular 250 ppm/kg once every 7 days. The protocol: (§1) Fifteen (15) healthy adult New Zealand white rabbits were randomly divided into three (3) groups: a normal control group (Group A), a model control group (Group B) and a test group subject to intra-articular injection of a test peptide (Group C), with five (5) rabbits included in each of the groups. Fasting was conducted within four hours before surgical operations. Ketamine (10 mg/kg) and atropine (0.2 mg/kg) were injected in the muscle of each rabbit. After anesthesia took effect, each rabbit was confined to an operating table. An 8 cm-long longitudinal scission was made in the back of each knee before the skin was lifted. From the back of the knee, the articular capsule and synovial were opened. Then, the knee was bent for 90° to expose the cartilage at a lower end of the femur. Two cylindrical cutouts of 3 mm in diameter and 3 mm in depth were made. Coagulation was removed from each of the cutouts. The joint cavity was washed with a sterile saline solution. Stitches were made for each section. After the surgical operation, injection of penicillin was conducted against infection for a week. After five (5) days, each rabbit was able to eat and stand normally.
(§2) Two (2) weeks after the surgical operation, the rabbits of Group A and Group B were not treated, whereas the rabbits of Group C were subject to intra-articular injection of 250 ppm/kg of pentapeptide-3 KTTKS once for every seven (7) days, and the injection lasted for twelve (12) weeks. Articular injection of 0.5 ml of saline was executed, and then 0.2 ml of synovial liquid was collected. The articular capsule was cut and opened, synovial was removed, and an entire tibial joint was taken. Arthropathy in arthrodial cartilage was observed by bare eyes and also via surgical lens. Slices were taken, dyed by hematoxylin and eosin stain (HE Stain) and toluidine blue, and then observed in an optical microscope.

The subject of test [2] is NO, SOD and MDA in synovial liquid. Put plainly: Biochemical indicators (NO, SOD, MDA) in synovial liquid of the rabbit model. In kind it is in vivo, New Zealand white rabbits.
Description: As used in the present invention, all of the methods for measuring SOD, NO and MDA in synovial liquid and collagen and proteoglycan in extracellular matrix of cartilage have been known and conventionally used in the art.
as §1, §2

In test [3] the test system is cartilage cells of the growth plate. Put plainly: Cultivated cartilage cells: DNA content, collagen and proteoglycan production. In kind it is cell-based, rabbits. The conditions noted are these: 250 ppm; samples after 3, 7 and 14 days. How it is done: Firstly, cartilage cells of the growth plate of the same rabbits were taken and continuously cultivated. The cultivated cells were divided into three groups. In Group I, only 250 ppm of pentapeptide-3 KTTKS was added. In Group II, only 100 ng/ml of collagen was added. In Group III, 250 ppm of pentapeptide-3 KTTKS and 100 ng/ml of collagen were added. A negative control group was also used. After new tissues of cartilage grew at a lower portion of a centrifuge tube, the new tissues were transferred to a 24-well platefor continuing cultivation, wherein the culture medium was replaced for every 2 days. During the cultivation, samples were collected after three (3), seven (7) and fourteen (14) days, and then were analyzed.
For the histological and histochemical measurements, samples were collected, and HE dying and immunochemical measurement (S-P method) were executed.
The content of DNA in the cells of cartilage was determined by the method of Hoechst 33258.
Extracellular matrix of cartilage primarily comprises collagen and proteoglycan composed of glycosaminoglycan and core protein, in addition to water. The content of the matrix and its status of the metabolism were quantitatively analyzed by determining a level of the collagen and proteoglycan in the new tissues of cartilage.
The synthesis of the collagen of the cartilage is measured by the hydroxyproline method. Because the content of hydroxyproline in the collagen was substantially constant (about 10% by weight), an amount of hydroxyproline could be used to analyze the amount of the collagen of the cartilage by using a commercial kit including the hydroxyproline reagent. The content of the collagen in the samples was calculated.

Setting [4] is: Group C: intra-articular injection of 250 ppm/kg once every 7 days for 12 weeks.
[5] abbreviates: intra-articular 250 ppm/kg once every 7 days, 12 weeks.

Entries after “also recorded” stand apart in the source; their conditions may differ.

As to “pentapeptide-3 KTTKS (printed: Lys-Thr-Thr-Lys-Ser) [pentapeptide Lys-Thr-Thr-Lys-Ser; test peptide injected intra-articularly in Group C]”, in test [1] (after 12 weeks), the “Histomorphometric observation of repaired tissues (HE stain, toluidine blue)” value is given as “the repaired tissues were not substantially different from the normal tissues of the knee joint; also recorded: considerably repaired the damaged tissues of cartilage” and the “Repair of knee joint injuries observed by bare eyes” value is “the injuries were completely repaired”. Further, the “Morphosis of the arthrodial cartilage compared with model control Group B” value in test [1] (12 weeks) was “significant improvement”. In test [2] (setting [4]), the “MDA level in synovial liquid” value came out at 15.23 ± 5.62 c/mol · L^−1, the “NO level in synovial liquid” value was found to be 25.11 ± 3.65 c/mol · L^−1 and the “SOD level in synovial liquid” value is listed as 6.18 ± 2.17 c/mol · L^−1. In test [2] (setting [5]), the “Change of MDA level in synovial liquid compared with model control Group B” value is on record as “considerably reduced” and the “Change of SOD level in synovial liquid compared with model control Group B” value is reported as “considerably increased”. Also, in test [3], the “Content of DNA of the cells of the cartilage versus control group (Hoechst 33258, FIG. 1)” value is reported as “statistically different from that of the control group”; the “Hyperosteogeny of the cells of the cartilage” value is listed as “considerable hyperosteogeny”; the “Production of collagen in cartilage tissue (hydroxyproline method, FIG. 2)” value was “considerably increased”; the “Production of proteoglycan of cartilage tissue (FIG. 3)” value is “considerably increased”.
